# Laboratory results taken from patent US4324783A, “Antibacterial composition for medical use” (Toyama Chemical Co., Ltd., priority 1977, dated 1982).
# How the values were obtained:
# [1] = tested on: clinically isolated strains; experiment: Test Examples 1 to 3 with other β-lactamase-inhibiting penicillins or cephalosporins; type: cell-based; details: in place of Methicillin or Cloxacillin
# Description: (§1) Heart Infusion agar containing a prescribed amount of Methicillin sodium or T-1220 was inoculated with the test bacterium at a rate of about 10^8 cells/ml. After incubation for 18 hours at 37° C., the growth of the test bacterium was inspected.
# The β-lactamase activity was assayed by the iodometric assay method at 30° C., following the procedure of Perret [C.J. Perret, "Iodometric Assay of Penicillinase," Nature, 174, 1012-1013 (1954)], except that a 0.1 molar phosphate buffer solution (pH 7.0) was used in place of the 0.2 molar phosphate buffer solution (pH 6.5). One unit of β-lactamase activity corresponds to the quantity of β-lactamase which decomposes 1 μmole/hour of T-1220 in a 0.1 molar phosphate buffer solution (pH 7.0) containing 8 m moles of the substrate.
# A pathogenic bacterium was inoculated at a rate of about 10^8 cells/ml into a Heart Infusion broth containing T-1220 (200 μg/ml) alone, T-1220 (200 μg/ml) plus Methicillin sodium (200 μg/ml), T-1220 (200 μg/ml) plus Cloxacillin sodium (200 μg/ml), Methicillin sodium (200 μg/ml) alone, or Cloxacillin sodium (200 μg/ml) alone. The inoculated broth was incubated at 37° C. and the number of live cells in the culture broth was determined at predetermined time intervals.
# The test results described in the foregoing Test Examples 1 to 3 are typical of the pharmacological activity of the antibacterial composition of this invention.
# [2] = tested on: Escherichia coli TK-3 strain; experiment: Minimum inhibitory concentration; type: cell-based; details: TK3STRAIN
# [3] = tested on: Pseudomonas aeruginosa S-12 strain; experiment: Minimum inhibitory concentration; type: cell-based; details: S12STRAIN
# K. pneumoniae Y-53 = experiment: Effect of combined use on experimental infection in mice (protection effect); type: in vivo, ICR mice infected with K. pneumoniae; details: K. pneumoniae Y-53, 1.0 × 10^7 cells/mouse intraperitoneal; subcutaneous, one and two hours after inoculation
# Description: (§2) Male mice (5 mice per group) of the ICR strain, 4 weeks of age, were peritoneally inoculated with the prescribed number of pathogenic bacteria suspended in 5% mucin. After one hour and two hours following the inoculation, test preparations shown in Table 4 were subcutaneously administered to examine the protection effect.
# [4] = tested on: Pseudomonas aeruginosa S-12 strain; experiment: Growth-inhibition test on clinically isolated strain (Heart Infusion agar, about 10^8 cells/ml, 18 hours at 37° C.); type: cell-based; parameters: key: (+) means that the test bacterium grew; (-) means that the test bacterium did not grow
# Description: as §1
# [5] = tested on: Escherichia coli TK-3 strain; experiment: as above; type: cell-based; parameters: key: (+) means that the test bacterium grew; (-) means that the test bacterium did not grow
# Description: as §1
# P. aeruginosa S-111 = experiment: Effect of combined use on experimental infection in mice (protection effect); type: in vivo, ICR mice infected with P. aeruginosa; details: P. aeruginosa S-111, 1.6 × 10^6 cells/mouse intraperitoneal; subcutaneous, one and two hours after inoculation
# Description: as §2
# [6] = T-1220 0 + methicillin sodium 50 μg/ml
# [7] = T-1220 0 + methicillin sodium 100 μg/ml
# [8] = T-1220 0 + methicillin sodium 200 μg/ml
smiles,measurement,setting,value
CO[C@@]1(NC(=O)Cc2cccs2)C(=O)N2C(C(=O)O)=C(COC(N)=O)CS[C@@H]21 [Cefoxitin],results in the Test Examples when used as the β-lactamase-inhibiting penicillin or cephalosporin,[1],results similar to those obtained with Methicillin and Cloxacillin
Cc1onc(-c2ccccc2Cl)c1C(=O)N[C@@H]1C(=O)N2[C@@H]1SC(C)(C)[C@@H]2C(=O)O [Cloxacillin sodium],MIC,[2],> 3200 µg/mL
same,MIC,[3],> 3200 µg/mL
Cc1onc(-c2c(Cl)cccc2Cl)c1C(=O)N[C@@H]1C(=O)N2[C@@H]1SC(C)(C)[C@@H]2C(=O)O [Dicloxacillin],results in the Test Examples when used as the β-lactamase-inhibiting penicillin or cephalosporin,[1],results similar to those obtained with Methicillin and Cloxacillin
Cc1onc(-c2c(F)cccc2Cl)c1C(=O)N[C@@H]1C(=O)N2[C@@H]1SC(C)(C)[C@@H]2C(=O)O [Flucloxacillin],results in the Test Examples when used as the β-lactamase-inhibiting penicillin or cephalosporin,[1],results similar to those obtained with Methicillin and Cloxacillin
COc1cccc(OC)c1C(=O)N[C@@H]1C(=O)N2[C@@H]1SC(C)(C)[C@@H]2C(=O)O [Methicillin sodium],MIC,[2],> 3200 µg/mL
same,ED50 (protection effect),K. pneumoniae Y-53,> 50 mg/mouse
same,MIC,[3],> 3200 µg/mL
same,growth of the test bacterium,[4]; T-1220 0 + methicillin sodium 3.13 μg/ml,+
same,growth of the test bacterium,[4]; T-1220 0 + methicillin sodium 6.25 μg/ml,+
same,growth of the test bacterium,[4]; T-1220 0 + methicillin sodium 12.5 μg/ml,+
same,growth of the test bacterium,[4]; T-1220 0 + methicillin sodium 25 μg/ml,+
same,growth of the test bacterium,[4]; [6],+
same,growth of the test bacterium,[4]; [7],+
same,growth of the test bacterium,[4]; [8],+
same,growth of the test bacterium,[5]; [6],+
same,growth of the test bacterium,[5]; [7],+
same,growth of the test bacterium,[5]; [8],+
same,growth of the test bacterium,[5]; T-1220 0 + methicillin sodium 400 μg/ml,+
same,growth of the test bacterium,[5]; T-1220 0 + methicillin sodium 800 μg/ml,+
same,growth of the test bacterium,[5]; T-1220 0 + methicillin sodium 1600 μg/ml,+
same,growth of the test bacterium,[5]; T-1220 0 + methicillin sodium 3200 μg/ml,+
same,ED50 (protection effect),P. aeruginosa S-111,> 50 mg/mouse
Cc1onc(-c2ccccc2)c1C(=O)N[C@@H]1C(=O)N2[C@@H]1SC(C)(C)[C@@H]2C(=O)O [Oxacillin],results in the Test Examples when used as the β-lactamase-inhibiting penicillin or cephalosporin,[1],results similar to those obtained with Methicillin and Cloxacillin
"CCN1CCN(C(=O)N[C@@H](C(=O)N[C@@H]2C(=O)N3[C@@H]2SC(C)(C)[C@@H]3C(=O)O)c2ccccc2)C(=O)C1=O [T-1220, sodium 6-[D(-)-α-(4-ethyl-2,3-dioxo-1-piperazinylcarbonylamino)phenylacetamido]penicillanate]",MIC,[2],> 3200 µg/mL
same,ED50 (protection effect),K. pneumoniae Y-53,> 50 mg/mouse
same,MIC,[3],> 3200 µg/mL
same,growth of the test bacterium,"[4]; T-1220 50 μg/ml, methicillin sodium concentration not given",+
same,growth of the test bacterium,"[4]; T-1220 100 μg/ml, methicillin sodium concentration not given",+
same,growth of the test bacterium,"[4]; T-1220 200 μg/ml, methicillin sodium concentration not given",+
same,growth of the test bacterium,"[4]; T-1220 400 μg/ml, methicillin sodium concentration not given",+
same,growth of the test bacterium,"[4]; T-1220 800 μg/ml, methicillin sodium concentration not given",+
same,growth of the test bacterium,"[4]; T-1220 1600 μg/ml, methicillin sodium concentration not given",+
same,growth of the test bacterium,"[4]; T-1220 3200 μg/ml, methicillin sodium concentration not given",+
same,growth of the test bacterium,[5]; T-1220 50 + methicillin sodium 0 μg/ml,+
same,growth of the test bacterium,[5]; T-1220 100 + methicillin sodium 0 μg/ml,+
same,growth of the test bacterium,[5]; T-1220 200 + methicillin sodium 0 μg/ml,+
same,growth of the test bacterium,[5]; T-1220 400 + methicillin sodium 0 μg/ml,+
same,growth of the test bacterium,[5]; T-1220 800 + methicillin sodium 0 μg/ml,+
same,growth of the test bacterium,[5]; T-1220 1600 + methicillin sodium 0 μg/ml,+
same,growth of the test bacterium,[5]; T-1220 3200 + methicillin sodium 0 μg/ml,+
same,ED50 (protection effect),P. aeruginosa S-111,> 50 mg/mouse
